Results published in PMC3820480 (Nature, 2013).

Experiments:
[1] = system: GCGR; conditions: antagonist to glucagon; no reference given; cited from earlier work
[2] = system: GCGR mutants of Trp295 and Asn298; test: Whole-cell glucagon binding assay, ECL2 mutants Trp295 and Asn298; design: species or system human; conditions: CHO-K1 cells, 40 pM 125I-glucagon, room temperature, 3 h

Row | Molecule | mode of antagonism [1] | effect of mutation of ECL2 residues on ligand binding [2]
1 | CS(=O)(=O)c1cccc(NC(=O)N(Cc2ccc(C(=O)Nc3nn[nH]n3)cc2)c2ccc(C3CCCCC3)cc2)c1 [NNC0640] | competitive antagonist to glucagon | –
2 | glucagon: 29 amino acid hormonal peptide, glucagon (Supplementary Fig. 1a) | – | strongly affects ligand binding
